Where two headings read alike, the source gives them in different places.
Legend:
JAK2 = JAK2 (Homo sapiens (Human), UniProt O60674); experiment: JAK2 enzyme activity inhibition (LANCE Ultra kinase assay)
JAK3 = JAK3 (Homo sapiens (Human), UniProt P52333); experiment: JAK3 enzyme activity inhibition (LANCE Ultra kinase assay); conditions: read-out: JAK3 inhibitory activity IC50
Chain of JAK3 (P52333 whole entry): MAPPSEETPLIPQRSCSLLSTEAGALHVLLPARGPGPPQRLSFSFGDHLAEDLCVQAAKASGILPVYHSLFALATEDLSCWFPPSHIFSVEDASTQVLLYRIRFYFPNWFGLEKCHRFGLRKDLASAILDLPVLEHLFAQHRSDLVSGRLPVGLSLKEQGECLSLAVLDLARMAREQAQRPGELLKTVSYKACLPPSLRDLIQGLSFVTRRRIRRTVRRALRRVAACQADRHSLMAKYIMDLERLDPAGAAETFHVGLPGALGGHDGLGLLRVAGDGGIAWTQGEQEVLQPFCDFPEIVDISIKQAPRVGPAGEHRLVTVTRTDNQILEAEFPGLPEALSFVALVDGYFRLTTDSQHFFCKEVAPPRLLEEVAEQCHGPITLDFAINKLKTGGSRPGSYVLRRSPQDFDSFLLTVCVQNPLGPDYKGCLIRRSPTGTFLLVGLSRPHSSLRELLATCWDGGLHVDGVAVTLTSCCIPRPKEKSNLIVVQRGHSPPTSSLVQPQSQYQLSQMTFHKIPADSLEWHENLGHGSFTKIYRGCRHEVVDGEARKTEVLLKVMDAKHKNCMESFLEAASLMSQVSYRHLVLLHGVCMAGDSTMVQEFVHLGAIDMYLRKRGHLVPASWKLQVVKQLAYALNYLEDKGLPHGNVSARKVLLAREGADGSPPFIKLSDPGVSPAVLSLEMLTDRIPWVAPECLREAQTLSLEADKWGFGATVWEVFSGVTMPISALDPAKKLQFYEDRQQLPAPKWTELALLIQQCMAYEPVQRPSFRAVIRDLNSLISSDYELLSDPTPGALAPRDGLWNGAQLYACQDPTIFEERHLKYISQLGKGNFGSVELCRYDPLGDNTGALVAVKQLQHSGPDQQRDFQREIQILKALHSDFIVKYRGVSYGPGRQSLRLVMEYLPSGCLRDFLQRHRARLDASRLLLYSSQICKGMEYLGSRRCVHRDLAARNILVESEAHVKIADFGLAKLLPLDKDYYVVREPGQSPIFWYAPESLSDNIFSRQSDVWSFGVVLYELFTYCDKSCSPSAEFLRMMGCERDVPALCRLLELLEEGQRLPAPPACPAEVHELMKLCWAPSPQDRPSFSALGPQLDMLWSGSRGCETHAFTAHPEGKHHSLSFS

Chain of JAK2 (O60674 whole entry): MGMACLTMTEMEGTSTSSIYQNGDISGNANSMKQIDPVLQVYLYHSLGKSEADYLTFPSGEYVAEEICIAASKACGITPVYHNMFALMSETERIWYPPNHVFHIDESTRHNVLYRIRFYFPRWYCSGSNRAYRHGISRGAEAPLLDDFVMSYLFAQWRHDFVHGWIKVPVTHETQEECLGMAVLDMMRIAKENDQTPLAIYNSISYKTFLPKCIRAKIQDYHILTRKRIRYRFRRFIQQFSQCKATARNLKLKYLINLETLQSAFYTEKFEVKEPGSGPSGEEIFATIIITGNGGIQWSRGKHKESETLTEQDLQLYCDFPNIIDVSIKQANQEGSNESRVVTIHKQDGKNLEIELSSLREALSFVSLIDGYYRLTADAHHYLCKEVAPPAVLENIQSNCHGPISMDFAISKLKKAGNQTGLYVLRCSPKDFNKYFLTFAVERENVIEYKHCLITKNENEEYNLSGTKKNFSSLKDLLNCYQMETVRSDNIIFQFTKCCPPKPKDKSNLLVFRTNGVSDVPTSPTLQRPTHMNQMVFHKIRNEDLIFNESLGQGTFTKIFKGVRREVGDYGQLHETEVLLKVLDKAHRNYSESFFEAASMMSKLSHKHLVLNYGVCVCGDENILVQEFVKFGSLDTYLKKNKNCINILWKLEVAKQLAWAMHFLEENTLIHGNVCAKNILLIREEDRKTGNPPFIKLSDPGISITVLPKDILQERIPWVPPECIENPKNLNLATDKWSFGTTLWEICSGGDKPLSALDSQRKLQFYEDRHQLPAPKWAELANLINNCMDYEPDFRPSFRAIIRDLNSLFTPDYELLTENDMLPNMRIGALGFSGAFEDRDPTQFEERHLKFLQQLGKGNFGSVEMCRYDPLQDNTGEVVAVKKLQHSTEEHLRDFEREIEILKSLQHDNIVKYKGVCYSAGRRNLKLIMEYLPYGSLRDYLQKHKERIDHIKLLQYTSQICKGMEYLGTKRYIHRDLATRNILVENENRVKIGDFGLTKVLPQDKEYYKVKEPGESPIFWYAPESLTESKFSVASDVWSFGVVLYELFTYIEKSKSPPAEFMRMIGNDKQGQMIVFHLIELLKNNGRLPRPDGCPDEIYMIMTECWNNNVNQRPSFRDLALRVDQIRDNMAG

Row | Compound | IC50 (JAK2) [nM] | IC50 (JAK3) [nM] | IC50 (JAK2; read-out: JAK2 inhibitory activity IC50, class symbols) [nM]
1 | CCS(=N)(=O)N1CC(CC#N)(n2cc(-c3ncnc4[nH]ccc34)cn2)C1 (single isomer, unassigned) [LW104-J] | 0.1 to 10 | 116 | –
2 | CN=S(C)(=O)N1CC(CC#N)(n2cc(-c3ncnc4[nH]ccc34)cn2)C1 (centres unmarked) [LW104-F] | 0.1 to 10 | 145 | –
3 | CC(C)N=S(C)(=O)N1CC(CC#N)(n2cc(-c3ncnc4[nH]ccc34)cn2)C1 (centres unmarked) [LW104-I] | 10 to 100 | 649 | –
4 | CCS(=N)(=O)N1CC(CC#N)(n2cc(-c3ncnc4[nH]ccc34)cn2)C1 (centres unmarked) [LW104-B] | 0.1 to 10 | 136 | –
5 | N#CCC1(n2cc(-c3ncnc4[nH]ccc34)cn2)CN(S(=N)(=O)C2CC2)C1 (centres unmarked) [LW104-E] | 0.1 to 10 | 187 | –
6 | CC(C)S(=N)(=O)N1CC(CC#N)(n2cc(-c3ncnc4[nH]ccc34)cn2)C1 (centres unmarked) [LW104-D] | – | 190 | –
7 | N#CCC1(n2cc(-c3ncnc4[nH]ccc34)cn2)CN(S(=N)(=O)c2ccccc2)C1 (centres unmarked) [LW104-C] | 10 to 100 | 427 | –
8 | CN=S(=O)(C1CC1)N1CC(CC#N)(n2cc(-c3ncnc4[nH]ccc34)cn2)C1 (centres unmarked) [LW104-L] | 0.1 to 10 | 158 | –
9 | CCS(=O)(=NC1CC1)N1CC(CC#N)(n2cc(-c3ncnc4[nH]ccc34)cn2)C1 (centres unmarked) [LW104-O] | – | 294 | –
10 | CCS(=O)(=NC)N1CC(CC#N)(n2cc(-c3ncnc4[nH]ccc34)cn2)C1 (centres unmarked) [LW104-P] | 10 to 100 | 216 | –
11 | CCS(=N)(=O)N1CC(CC#N)(n2cc(-c3ncnc4[nH]ccc34)cn2)C1 (single isomer, unassigned) [LW104-K] | – | 69.3 | 0.1 to 10
12 | CC(N=[S@@](C)(=O)N1CC(CC#N)(n2cc(-c3ncnc4[nH]ccc34)cn2)C1)c1ccccc1 (stereo in doubt) [LW104-G] | 10 to 100 | – | –
13 | CCN=S(=O)(C1CC1)N1CC(CC#N)(n2cc(-c3ncnc4[nH]ccc34)cn2)C1 (centres unmarked) [LW104-M] | – | 194 | –
14 | N#CCC1(n2cc(-c3ncnc4[nH]ccc34)cn2)CN(S(=O)(=NC2CC2)C2CC2)C1 (centres unmarked) [LW104-N] | 0.1 to 10 | 203 | –
15 | CS(=N)(=O)N1CC(CC#N)(n2cc(-c3ncnc4[nH]ccc34)cn2)C1 (centres unmarked) [LW104-A] | 0.1 to 10 | 98.3 | –

Reference: US11524961B2, “JAK kinase inhibitor and preparation method and use thereof” (Shanghai Longwood Biopharmaceuticals Co., Ltd., priority 2017, dated 2022)
